According to ChEMBL document CHEMBL1132113, “Inhibitors of efflux pumps in Pseudomonas aeruginosa potentiate the activity of the fluoroquinolone antibacterial levofloxacin” (1999):
Converted amounts (≈) assume the structure as drawn. Peptide text beside a SMILES is read from it. * marks the point of attachment. βNA = c1ccc2cc(N*)ccc2c1

Experiments:
Pseudomonas aeruginosa [1] = assay: Minimum Inhibitory concentration required to reduce the MIC of levofloxacin by 8-fold against PAM 1032; type: functional
Pseudomonas aeruginosa [2] = assay: (§1) Volume of synergy by MacSynergy II 3-D analysis.; type: functional
Pseudomonas aeruginosa [3] = assay: Minimum Inhibitory concentration required to inhibit the growth of Pseudomonas aeruginosa (strain PAM 1032).; type: functional
Pseudomonas aeruginosa [4] = assay: Minimum inhibitory concentration of Levofloxacin in presence at a concentration of 10 ug/mL against PAM 1033.; type: functional
Pseudomonas aeruginosa [5] = assay: Minimum inhibitory concentration of Levofloxacin in presence at a concentration of 1.25 ug/mL against PAM 1033; type: functional
Pseudomonas aeruginosa [6] = assay: Minimum inhibitory concentration of Levofloxacin in presence at a concentration of 20 ug/mL against PAM 1033.; type: functional
Pseudomonas aeruginosa [7] = assay: Minimum inhibitory concentration of Levofloxacin in presence at a concentration of 0 ug/mL against PAM 1033; type: functional
Pseudomonas aeruginosa [8] = assay: Minimum Inhibitory concentration required to inhibit the growth of Pseudomonas aeruginosa (strain PAM 1032); type: functional
Pseudomonas aeruginosa [9] = assay: Minimum inhibitory concentration of Levofloxacin in presence at a concentration of 40 ug/mL against PAM 1033.; type: functional
Pseudomonas aeruginosa [10] = assay: Minimum inhibitory concentration of Levofloxacin in presence at a concentration of 5 ug/mL against PAM 1032; type: functional
Pseudomonas aeruginosa [11] = assay: Minimum inhibitory concentration of Levofloxacin in presence at a concentration of 1.25 ug/mL against PAM 1034.; type: functional
Pseudomonas aeruginosa [12] = assay: Minimum Inhibitory concentration required to reduce the MIC of levofloxacin by 8-fold against PAM 1033.; type: functional
Pseudomonas aeruginosa [13] = assay: Minimum inhibitory concentration of Levofloxacin in presence at a concentration of 2.50 ug/mL against PAM 1033.; type: functional
Pseudomonas aeruginosa [14] = assay: Minimum inhibitory concentration of Levofloxacin in presence at a concentration of 0 ug/mL against PAM 1034.; type: functional
Pseudomonas aeruginosa [15] = assay: Minimum inhibitory concentration of Levofloxacin in presence at a concentration of 1.25 ug/mL against PAM 1032; type: functional
Pseudomonas aeruginosa [16] = assay: Minimum inhibitory concentration of Levofloxacin in presence at a concentration of 10 ug/mL against PAM 1034.; type: functional
Pseudomonas aeruginosa [17] = assay: Minimum inhibitory concentration of Levofloxacin in presence at a concentration of 20 ug/mL against PAM 1032; type: functional
Pseudomonas aeruginosa [18] = assay: Minimum inhibitory concentration of Levofloxacin in presence at a concentration of 20 ug/mL against PAM 1034.; type: functional
Pseudomonas aeruginosa [19] = assay: Minimum inhibitory concentration of Levofloxacin in presence at a concentration of 10 ug/mL against PAM 1032; type: functional
Pseudomonas aeruginosa [20] = assay: Minimum Inhibitory concentration required to reduce the MIC of levofloxacin by 8-fold against PAM 1034.; type: functional
Pseudomonas aeruginosa [21] = assay: Minimum inhibitory concentration of Levofloxacin in presence at a concentration of 5 ug/mL against PAM 1034.; type: functional
Pseudomonas aeruginosa [22] = assay: Minimum inhibitory concentration of Levofloxacin in presence at a concentration of 40 ug/mL against PAM 1032; type: functional
Pseudomonas aeruginosa [23] = assay: Minimum inhibitory concentration of Levofloxacin in presence at a concentration of 0 ug/mL against PAM 1032; type: functional
Pseudomonas aeruginosa [24] = assay: Minimum inhibitory concentration of Levofloxacin in presence at a concentration of 2.5 ug/mL against PAM 1032; type: functional
Pseudomonas aeruginosa [25] = assay: Minimum inhibitory concentration of Levofloxacin in presence at a concentration of 40 ug/mL against PAM 1034.; type: functional
Pseudomonas aeruginosa [26] = assay: Minimum inhibitory concentration of Levofloxacin in presence at a concentration of 2.5 ug/mL against PAM 1034.; type: functional
Pseudomonas aeruginosa [27] = assay: Minimum inhibitory concentration of Levofloxacin in presence at a concentration of 50 ug/mL against PAM 1033.; type: functional
[28] = as §1

Compound NCCC[C@H](NC(=O)[C@@H](N)Cc1ccccc1)C(=O)Nc1ccc2ccccc2c1 has an MPC8 (Pseudomonas aeruginosa [1]) of 5 µg/mL, a VOLSYN (Pseudomonas aeruginosa [2]) of 1760 and an MIC (Pseudomonas aeruginosa [3]) of 512 µg/mL (≈ 1270 µM).

In the case of NCCCC[C@H](NC(=O)[C@@H](N)Cc1ccccc1)C(=O)Nc1ccc2ccccc2c1, the MPC8 (Pseudomonas aeruginosa [1]) is reported as 10 µg/mL, the VOLSYN (Pseudomonas aeruginosa [2]) is reported as 1390 and the MIC (Pseudomonas aeruginosa [3]) is reported as > 512 µg/mL.

For N=C(N)NCCC[C@H](NC(=O)[C@@H](N)Cc1ccccc1)C(=O)Nc1ccc2ccccc2c1 [PABETAN] (H-Phe-Arg-βNA), the MPC8 (Pseudomonas aeruginosa [1]) was 10 µg/mL, the MIC (Pseudomonas aeruginosa [4]) was 0.125 µg/mL (≈ 0.28 µM) and the MIC (Pseudomonas aeruginosa [5]) was 4 µg/mL (≈ 8.96 µM). The MIC (Pseudomonas aeruginosa [6]) was 0.125 µg/mL (≈ 0.28 µM), the MIC (Pseudomonas aeruginosa [7]) was 4 µg/mL (≈ 8.96 µM) and the MIC (Pseudomonas aeruginosa [8]) was > 512 µg/mL. It also gave an MIC (Pseudomonas aeruginosa [9]) of 0.125 µg/mL (≈ 0.28 µM), an MIC (Pseudomonas aeruginosa [10]) of 0.5 µg/mL (≈ 1.12 µM) and an MIC (Pseudomonas aeruginosa [11]) of 4 µg/mL (≈ 8.96 µM). For the same compound, the MPC8 (Pseudomonas aeruginosa [12]) was 5 µg/mL, the MIC (Pseudomonas aeruginosa [13]) was 2 µg/mL (≈ 4.48 µM) and the VOLSYN (Pseudomonas aeruginosa [2]) was 1962. It also gave an MIC (Pseudomonas aeruginosa [14]) of 4 µg/mL (≈ 8.96 µM), an MIC (Pseudomonas aeruginosa [15]) of 2 µg/mL (≈ 4.48 µM) and an MIC (Pseudomonas aeruginosa [16]) of 0.25 µg/mL (≈ 0.56 µM). The MIC (Pseudomonas aeruginosa [17]) was 0.06 µg/mL (≈ 0.134 µM), the MIC (Pseudomonas aeruginosa [18]) was 0.06 µg/mL (≈ 0.134 µM) and the MIC (Pseudomonas aeruginosa [19]) was 0.125 µg/mL (≈ 0.28 µM). It also gave an MPC8 (Pseudomonas aeruginosa [20]) of 10 µg/mL, an MIC (Pseudomonas aeruginosa [21]) of 1 µg/mL (≈ 2.24 µM) and an MIC (Pseudomonas aeruginosa [22]) of 0.06 µg/mL (≈ 0.134 µM). For the same compound, the MIC (Pseudomonas aeruginosa [23]) was 2 µg/mL (≈ 4.48 µM), the MIC (Pseudomonas aeruginosa [24]) was 1 µg/mL (≈ 2.24 µM) and the MIC (Pseudomonas aeruginosa [25]) was 0.03 µg/mL (≈ 0.0672 µM). It also gave an MIC (Pseudomonas aeruginosa [26]) of 4 µg/mL (≈ 8.96 µM) and an MIC (Pseudomonas aeruginosa [27]) of 0.5 µg/mL (≈ 1.12 µM).

CN(C(=O)[C@@H](N)Cc1ccccc1)[C@@H](CCCN)C(=O)Nc1ccc2ccccc2c1 showed an MPC8 (Pseudomonas aeruginosa [1]) of 5 µg/mL, a VOLSYN (Pseudomonas aeruginosa [2]) of 2825 and an MIC (Pseudomonas aeruginosa [3]) of 256 µg/mL (≈ 612 µM).

Work on NCCC[C@H](NC(=O)[C@@H](N)CCc1ccccc1)C(=O)Nc1ccc2ccccc2c1 yielded an MPC8 (Pseudomonas aeruginosa [1]) of 2.5 µg/mL, a VOLSYN (Pseudomonas aeruginosa [2]) of 2612 and an MIC (Pseudomonas aeruginosa [3]) of 128 µg/mL (≈ 306 µM).

For NCCC[C@H](NC(=O)[C@@H](N)CCc1ccccc1)C(=O)Nc1ccc2ncccc2c1, the MPC8 (Pseudomonas aeruginosa [1]) was 10 µg/mL, the MIC (Pseudomonas aeruginosa [8]) was > 512 µg/mL and the VOLSYN [28] was 2060.
